Laboratory results as given in patent US10934274B2, “Quinoline derivatives as TAM RTK inhibitors” (Qurient Co., Ltd., priority 2015, dated 2021).

Legend:
Met = molecular target: T1, Met (Homo sapiens, UniProt P08581); experiment: LanthaScreen Eu kinase binding assay, Met; conditions: Tracer 236, read-out: cMet kinase binding activity (Kd)
T1 construct: purchased Life Technologies

[1] = tested on: Axl phosphorylation in transiently transfected HEK293T cells; experiment: Cellular Axl phosphorylation assay; format: cell-based; conditions: Homo sapiens, HEK-293T; HEK293T cells transfected with Axl, 1 hour compound treatment, Phospho-Axl vs Total-Axl
Excerpt: Cell AXL Inhibition Assay Principle
The assay is based on the measurement of the relative amounts of Total-Axl and Phosphorylated-Axl in whole cell lysates of transiently transfected HEK293T cells. This assay is based on application of the Mesoscale western blot and subsequent electro-chemiluminescence detection. Overexpression of Axl-RTK (Receptor tyrosine kinase) by transfection leads to an increase in Axl-trans-autophosphorylation events. Upon compound treatment, the correlation of the measured values of Phosphorylated-Axl and Total Axl indicate the potential of the tested compound to inhibit Axl-phosphorylation at the given compound concentration.
Cell AXL Inhibition Assay Protocol
HEK293T cells (2.5×10^4/well) were plated in a 96 well plate and cells were transfected with pcDNA_DEST_40 Axl or pcDNA_DEST_40 by Superfact reagent (Qiagen. Co. Ltd.). After overnight, the transfection reagent of each well was removed from cells and replaced by fresh prewarmed medium. On the following day, cells were treated with the respective test compound which was diluted by the same method, as in the Axl binding assay using DMSO, for 1 hour
After incubation with the test compounds, cells in the well of the plate were lysed using Tris lysis buffer. The lysate was transferred to two plates (total-Axl and phosphor-Axl) Mesoscale high bind plates and incubated for two hours at room temperature. Afterwards the lysates were removed from the plates and the plates were blocked using Blocking buffer. Subsequently Total-Axl antibody (H-124, Santa Cruz) was transferred to one Mesoscale high bind plate, and Phospho-Axl antibody (AF2228, R&D) to the other plate. After 1 h incubation, Sulpho-Tag antibody (goat anti-rabbit, Mesoscale) was added and again incubated for 1 hour. For the measurement, 2×MSD read buffer was added to each well and the plates were analyzed with a Mesoscale Sector Imager 2400. IC50 (half the maximal inhibitory concentration) was determined relative to between the vehicle (DMSO) control group and minimum control group as transfection of the control vector (pcDNA_DEST_40).
The results after this assay are shown in table 3 for selected compounds.

TYRO3 = molecular target: T2, TYRO3 (Homo sapiens, UniProt Q06418); experiment: LanthaScreen Eu kinase binding assay, TYRO3; conditions: Tracer 236
T2 construct: purchased Life Technologies
T2 sequence (Q06418 41-890): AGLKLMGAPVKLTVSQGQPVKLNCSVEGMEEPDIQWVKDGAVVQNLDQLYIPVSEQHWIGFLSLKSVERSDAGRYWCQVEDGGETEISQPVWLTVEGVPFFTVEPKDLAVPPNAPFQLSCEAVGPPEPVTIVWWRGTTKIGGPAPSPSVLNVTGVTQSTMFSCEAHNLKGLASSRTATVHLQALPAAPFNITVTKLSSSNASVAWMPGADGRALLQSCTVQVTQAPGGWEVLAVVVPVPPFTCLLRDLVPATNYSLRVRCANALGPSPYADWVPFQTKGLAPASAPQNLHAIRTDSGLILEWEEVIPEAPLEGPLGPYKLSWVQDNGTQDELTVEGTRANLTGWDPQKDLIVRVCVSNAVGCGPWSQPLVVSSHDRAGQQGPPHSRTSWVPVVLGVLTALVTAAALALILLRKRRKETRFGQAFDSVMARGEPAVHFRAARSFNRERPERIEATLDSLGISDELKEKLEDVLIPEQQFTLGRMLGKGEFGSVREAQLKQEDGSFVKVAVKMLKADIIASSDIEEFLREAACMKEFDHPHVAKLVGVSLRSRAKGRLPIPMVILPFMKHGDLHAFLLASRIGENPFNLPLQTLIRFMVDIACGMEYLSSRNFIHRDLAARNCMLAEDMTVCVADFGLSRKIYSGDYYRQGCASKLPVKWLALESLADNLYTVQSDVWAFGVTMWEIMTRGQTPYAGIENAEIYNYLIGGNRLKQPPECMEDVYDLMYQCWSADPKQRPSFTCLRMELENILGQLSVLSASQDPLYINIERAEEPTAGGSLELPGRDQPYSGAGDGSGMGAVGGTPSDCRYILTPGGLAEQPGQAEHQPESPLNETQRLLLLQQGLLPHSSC

T1 sequence (P08581 25-1390): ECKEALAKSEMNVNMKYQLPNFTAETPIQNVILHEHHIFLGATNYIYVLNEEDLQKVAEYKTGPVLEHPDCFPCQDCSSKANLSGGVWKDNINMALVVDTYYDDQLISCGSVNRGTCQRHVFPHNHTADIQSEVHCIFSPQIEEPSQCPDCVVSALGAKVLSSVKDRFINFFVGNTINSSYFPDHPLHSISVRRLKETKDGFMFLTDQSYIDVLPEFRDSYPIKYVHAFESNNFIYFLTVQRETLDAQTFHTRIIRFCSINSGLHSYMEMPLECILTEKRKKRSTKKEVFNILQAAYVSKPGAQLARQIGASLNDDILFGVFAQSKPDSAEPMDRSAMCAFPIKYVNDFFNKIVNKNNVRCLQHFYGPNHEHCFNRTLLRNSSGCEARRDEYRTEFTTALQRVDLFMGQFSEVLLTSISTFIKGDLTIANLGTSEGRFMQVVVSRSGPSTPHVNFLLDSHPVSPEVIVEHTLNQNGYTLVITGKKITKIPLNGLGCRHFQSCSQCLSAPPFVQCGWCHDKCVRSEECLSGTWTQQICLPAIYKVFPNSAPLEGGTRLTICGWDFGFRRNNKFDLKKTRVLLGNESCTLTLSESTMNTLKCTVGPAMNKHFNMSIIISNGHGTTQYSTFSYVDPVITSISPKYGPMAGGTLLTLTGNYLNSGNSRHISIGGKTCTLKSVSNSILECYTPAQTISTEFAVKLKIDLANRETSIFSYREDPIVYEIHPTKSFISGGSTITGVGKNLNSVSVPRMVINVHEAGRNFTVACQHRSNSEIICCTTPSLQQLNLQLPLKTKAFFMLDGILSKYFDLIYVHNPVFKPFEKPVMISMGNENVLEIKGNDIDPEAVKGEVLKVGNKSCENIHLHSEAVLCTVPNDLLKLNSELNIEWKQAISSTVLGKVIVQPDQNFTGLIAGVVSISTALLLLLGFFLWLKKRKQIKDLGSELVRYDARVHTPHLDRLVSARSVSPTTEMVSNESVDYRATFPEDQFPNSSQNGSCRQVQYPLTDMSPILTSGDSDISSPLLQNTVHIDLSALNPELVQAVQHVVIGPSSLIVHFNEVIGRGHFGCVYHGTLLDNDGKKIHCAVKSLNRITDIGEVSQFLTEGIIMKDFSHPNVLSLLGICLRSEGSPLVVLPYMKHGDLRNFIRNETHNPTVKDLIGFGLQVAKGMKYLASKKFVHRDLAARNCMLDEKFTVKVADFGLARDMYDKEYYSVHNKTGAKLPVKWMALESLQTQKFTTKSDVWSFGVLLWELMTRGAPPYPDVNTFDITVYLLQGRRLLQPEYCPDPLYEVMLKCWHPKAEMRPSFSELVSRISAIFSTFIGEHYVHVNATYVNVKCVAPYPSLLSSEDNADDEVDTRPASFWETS

SMILES | Kd (Met) [nM] | IC50 [1] [nM] | Kd (TYRO3) [nM]
CCOc1cn(-c2cnccc2C(C)=O)nc1C(=O)Nc1ccc(Oc2ccnc3cc(OC)c(OC)cc23)cn1 [Compound 182] | < 100 | < 100 | < 100
CCOc1cnn(-c2ccc(C(F)(F)F)cc2C(F)(F)F)c1C(=O)Nc1ccc(Oc2ccnc3cc(OC)c(OC)cc23)cn1 [Compound 110] | < 100 | < 100 | 100 to 1000
CCOc1cn(-c2ccc(Cl)cc2F)nc1C(=O)Nc1ccc(Oc2ccnc3cc(OC)c(OC)cc23)cn1 [Compound 106] | < 100 | < 100 | 100 to 1000
CCOc1cn(-c2cnccc2C(C)(C)O)nc1C(=O)Nc1ccc(Oc2ccnc3cc(OC)c(OC)cc23)cc1F [Compound 197] | < 100 | < 100 | < 100
CCOc1cn(-c2cnccc2Cl)nc1C(=O)Nc1ccc(Oc2ccnc3cc(OC)c(OC)cc23)cc1F [Compound 194] | < 100 | < 100 | < 100
CCOc1cn(-c2cccnc2)nc1C(=O)Nc1ccc(Oc2ccnc3cc(OC(C)CC)c(OC)cc23)cn1 (stereo not drawn) [Compound 206] | ≥ 1000 | < 100 | ≥ 1000
COc1cc2nccc(Oc3ccc(NC(=O)c4nn(-c5ccc(F)cc5C)cc4OCC(F)(F)F)nc3)c2cc1OC [Compound 203] | < 100 | < 100 | < 100
CCOc1cn(-c2ccc(F)cc2CC)nc1C(=O)Nc1ccc(Oc2ccnc3cc(OC)c(OC)cc23)cn1 [Compound 112] | < 100 | < 100 | < 100
CCOc1cn(-c2cnccc2Cl)nc1C(=O)Nc1ccc(Oc2ccnc3cc(OC)c(OC)cc23)cn1 [Compound 183] | < 100 | < 100 | < 100
CCOc1cn(-c2c(C)ccnc2C)nc1C(=O)Nc1ccc(Oc2ccnc3cc(OC)c(OC)cc23)cc1F [Compound 191] | < 100 | < 100 | < 100
CCOc1cn(-c2ccc(Cl)cc2CC)nc1C(=O)Nc1ccc(Oc2ccnc3cc(OC)c(OC)cc23)cn1 [Compound 111] | < 100 | < 100 | < 100
CCOc1cnn(-c2ccc(C(F)(F)F)cc2C)c1C(=O)Nc1ccc(Oc2ccnc3cc(OC)c(OC)cc23)cn1 [Compound 102] | ≥ 1000 | < 100 | 100 to 1000
CCOc1cn(-c2cnccc2CCO)nc1C(=O)Nc1ccc(Oc2ccnc3cc(OC)c(OC)cc23)cn1 [Compound 181] | < 100 | < 100 | < 100
CCOc1cn(-c2c(C)ccnc2C)nc1C(=O)Nc1ccc(Oc2ccnc3cc(OC)c(OC)cc23)cn1 [Compound 132] | < 100 | < 100 | < 100
CCOc1cn(-c2ncc(Cl)cc2C#N)nc1C(=O)Nc1ccc(Oc2ccnc3cc(OC)c(OC)cc23)cn1 [Compound 133] | < 100 | < 100 | < 100
CCOc1cn(-c2c(C)cc(C)cc2C)nc1C(=O)Nc1ccc(Oc2ccnc3cc(OC)c(OC)cc23)cn1 [Compound 117] | < 100 | < 100 | 100 to 1000
CCOc1cn(-c2cscn2)nc1C(=O)Nc1ccc(Oc2ccnc3cc(OC)c(OC)cc23)cn1 [Compound 13] | < 100 | < 100 | < 100
CCOc1cn(-c2cnccc2CO)nc1C(=O)Nc1ccc(Oc2ccnc3cc(OC)c(OC)cc23)c(F)c1 [Compound 207] | < 100 | < 100 | < 100
CCOc1cn(-c2noc(C)n2)nc1C(=O)Nc1ccc(Oc2ccnc3cc(OC)c(OC)cc23)cn1 [Compound 161] | < 100 | < 100 | < 100

SMILES | Kd (Met) [nM] | IC50 [1] [nM] | Kd (TYRO3) [nM]
CCOc1cn(-c2ccc(F)c(CN(C)C)c2)nc1C(=O)Nc1ccc(Oc2ccnc3cc(OC)c(OC)cc23)cn1 [Compound 124] | < 100 | < 100 | < 100
CCOc1cn(-c2ncn(C)n2)nc1C(=O)Nc1ccc(Oc2ccnc3cc(OC)c(OC)cc23)cn1 [Compound 165] | < 100 | < 100 | 100 to 1000
CCOc1cn(-c2nccs2)nc1C(=O)Nc1ccc(Oc2ccnc3cc(OC)c(OC)cc23)cn1 [Compound 12] | 100 to 1000 | < 100 | < 100
CCOc1cn(-c2ccc(Cl)c(CN(C)C)c2)nc1C(=O)Nc1ccc(Oc2ccnc3cc(OC)c(OC)cc23)cn1 [Compound 126] | < 100 | < 100 | ≥ 1000
CCOc1cn(-c2cnccc2C(F)(F)F)nc1C(=O)Nc1ccc(Oc2ccnc3cc(OC)c(OC)cc23)c(F)c1 [Compound 198] | < 100 | < 100 | < 100
CCOc1cn(-c2cnc(CO)nc2)nc1C(=O)Nc1ccc(Oc2ccnc3cc(OC)c(OC)cc23)cn1 [Compound 96] | ≥ 1000 | < 100 | ≥ 1000
CCOc1cn(-c2ccc(F)cc2F)nc1C(=O)Nc1ccc(Oc2ccnc3cc(OC)c(OC)cc23)cn1 [Compound 107] | < 100 | < 100 | < 100
CCOc1cn(-c2ccc(OC(F)(F)F)cc2Cl)nc1C(=O)Nc1ccc(Oc2ccnc3cc(OC)c(OC(F)(F)F)cc23)cn1 [Compound 201] | 100 to 1000 | 100 to 1000 | ≥ 1000
CCOc1cn(-c2cn[nH]c2)nc1C(=O)Nc1ccc(Oc2ccnc3cc(OC)c(OC)cc23)cn1 [Compound 8] | < 100 | < 100 | 100 to 1000
CCOc1cn(-c2cnccc2Cl)nc1C(=O)Nc1ccc(Oc2ccnc3cc(OC)c(OC)cc23)c(F)c1 [Compound 193] | < 100 | < 100 | < 100
CCOc1cn(-c2ccc(Cl)cc2Cl)nc1C(=O)Nc1ccc(Oc2ccnc3cc(OC)c(OC)cc23)cn1 [Compound 108] | ≥ 1000 | < 100 | < 100
CCOc1cn(-c2cccnc2)nc1C(=O)Nc1ccc(Oc2ccnc3cc(OC(C)C)c(OC)cc23)cn1 [Compound 208] | < 100 | < 100 | 100 to 1000
CCOc1cn(-c2nccnc2Cl)nc1C(=O)Nc1ccc(Oc2ccnc3cc(OC)c(OC)cc23)cc1F [Compound 190] | < 100 | < 100 | < 100
CCOc1cn(-c2cnc(OC)nc2)nc1C(=O)Nc1ccc(Oc2ccnc3cc(OC)c(OC)cc23)cn1 [Compound 148] | < 100 | < 100 | ≥ 1000
CCOc1cn(-c2ccc(C(C)C)cc2F)nc1C(=O)Nc1ccc(Oc2ccnc3cc(OC)c(OC)cc23)cn1 [Compound 127] | < 100 | < 100 | ≥ 1000
CCOc1cn(-c2cnccc2C(C)(C)O)nc1C(=O)Nc1ccc(Oc2ccnc3cc(OC)c(OC)cc23)c(F)c1 [Compound 195] | < 100 | < 100 | < 100
CCOc1cn(-c2cncs2)nc1C(=O)Nc1ccc(Oc2ccnc3cc(OC)c(OC)cc23)cn1 [Compound 14] | < 100 | < 100 | < 100
CCOc1cn(-c2ccc(OC(F)(F)F)cc2Cl)nc1C(=O)Nc1ccc(Oc2ccnc3cc(OC)c(OC)cc23)cc1F [Compound 192] | < 100 | < 100 | 100 to 1000
CCOc1cn(-c2cnccc2C(F)(F)F)nc1C(=O)Nc1ccc(Oc2ccnc3cc(OC)c(OC)cc23)cc1F [Compound 196] | < 100 | < 100 | < 100
